Measured values from US20140294737A1, “TREATMENT OF RHINITIS” (AMPIO PHARMACEUTICALS, INC., priority 2011, published 2014).

Test system: allergic rhinitis in adult humans
Assay: Phase Ib randomized, double-blinded, placebo-controlled study of danazol intranasal spray; subject-reported Total Nasal Symptom Score (TNSS)
Type: in vivo, human
Design: key to Change in rTNSS, Median / Change in AM rTNSS, Median / Change in iTNSS, Median / Change in AM iTNSS, Median: change in TNSS, sum of four 0–3 symptom scores (0–12)
Description: A Phase Ib randomized, double-blinded, placebo-controlled, parallel group study was performed to evaluate the efficacy of danazol for treating allergic rhinitis in adult humans. Briefly, the study was performed as follows.
The subjects were male or female humans, 18-65 years of age, with a history of allergic rhinitis that had been receiving therapy (continuous or intermittent) for more than 1 year.
During a seven-day wash out period (days 1-7), the subjects received no treatment of any type and recorded their symptoms twice a day (in the morning before bathing, consumption of food or beverages or strenuous activities and 12 hours later) using the following scale: • 0=absent (no sign/symptom present) • 1=mild (sign/symptom clearly present, but minimal awareness; easily tolerated) • 2=moderate (definite awareness of sign/symptom that is bothersome but tolerable) • 3=severe (sign/symptom that is hard to tolerate; causes interference with activities of daily living and/or sleeping)
The subjects were randomized into treatment groups (danazol or placebo) after the wash out period (on day 8).
Treatment was begun on day 8 and continued through day 21 (14 days total). During treatment, the subjects again recorded their symptoms twice daily (as described above and before administration of the test medications in the morning) using the above scale. The subjects administered 0.3 ml of one of the test medications, 0.15 ml per nostril, once daily in the morning, immediately after recording their symptoms. The first administration of test medications was supervised by test site personnel. The test medications were 0.1% (w/v) danazol intranasal spray and placebo spray (nonmedicinal components in identical intranasal spray format). Efficacy of the test medications was assessed as follows:
The measures of effectiveness in this study included the subject-reported Total Nasal Symptom Score (TNSS). The TNSS is defined as the sum of the subject-reported symptom scores for the four nasal symptoms: rhinorrhea (runny nose), nasal congestion, nasal itching, and sneezing. Each score is assessed on a severity scale ranging from 0 to 3 as defined above.
The subjects were asked to assess both reflective TNSS (i.e., an evaluation of symptom severity over the past 12 hours prior to the recording of the score) and instantaneous TNSS (i.e., an evaluation of the symptom severity over the last 10 minutes).
The reflective and instantaneous TNSS are defined as the sum of the subject-reported symptom scores for the four nasal symptoms. Each subject recorded the symptom scores in the subject's diary. For each score, information recorded in the diary included the following: • rhinorrhea (runny nose) • nasal congestion • nasal itching • sneezing The severity scale for each symptom evaluation is given above.
Mean reflective (r) and instantaneous (i) subject-reported total nasal symptom scores (TNSS) were calculated for each subject. The mean TNSS is the average of all AM and PM daily scores (each score is ranked on a scale from 0-12) during the baseline (baseline efficacy value) and the treatment period (double-blind efficacy value).
The change in efficacy was calculated as the change in the double-blind value—baseline value as follows: • Change in rTNSS: mean double-blind rTNSS—mean baseline rTNSS • Change in iTNSS: mean double-blind iTNSS—mean baseline iTNSS Student's t-test: mean (SD) difference between treatment groups for the following: • Mean change in (rTNSS/iTNSS) • Mean change in AM (rTNSS/iTNSS) • Mean change in PM (rTNSS/iTNSS) • Mean change in individual symptom scores for each of the four nasal symptoms.
The largest improvements were with itchy nose symptoms (Table 8 and FIG. 6).

[1] = Wilcoxon rank-sum analysis, median, n=10
[2] = instantaneous symptom score 0-3, double-blind minus baseline, mean (SD), n=10
[3] = reflective symptom score 0-3, double-blind minus baseline, mean (SD), n=10

For `C#C[C@]1(O)CC[C@H]2[C@@H]3CCC4=Cc5oncc5C[C@]4(C)[C@H]3CC[C@@]21C` [Danazol, 17α-pregna-2,4-dien-20-yno[2,3-d]-isoxazol-17β-ol], the “Change in instantaneous symptom iItchy nose, Median” value [1] was −1.0, the “Change in instantaneous symptom iRunny nose, Median” value [1] was 0.0 and the “Change in instantaneous symptom iSneezing, Median” value [1] was −0.5. The “Change in instantaneous symptom iStuffy nose, Median” value [1] was −0.5, the “Change in reflective symptom rItchy nose, Median” value [1] was −1.0 and the “Change in reflective symptom rRunny nose, Median” value [1] was −0.25. The “Change in reflective symptom rSneezing, Median” value [1] was −1.0, the “Change in reflective symptom rStuffy nose, Median” value [1] was 0.0 and the “efficacy measures showing a larger improvement with danazol than with placebo, instantaneous” value (iTNSS measures, all assessments but sneezing) was 6/7. The “Mean change in iTNSS” value (instantaneous TNSS, all AM and PM scores, double-blind minus baseline, 0.1% (w/v) intranasal spray once daily, 14 days, mean (SD), n=10) was −1.94 (2.68), the “Mean change in PM iTNSS” value (instantaneous TNSS, evening assessment, double-blind minus baseline, mean (SD), n=10) was −1.42 (2.64) and the “Change in PM iTNSS, Median” value (instantaneous TNSS, evening, Wilcoxon rank-sum analysis, median, n=10) was −1.5. The “Mean change in AM iTNSS” value (instantaneous TNSS, morning assessment, double-blind minus baseline, mean (SD), n=10) was −1.59 (2.36), the “Change in AM iTNSS, Median” value (instantaneous TNSS, morning, Wilcoxon rank-sum analysis, median, n=10) was −1.5 and the “Change in iTNSS, Median” value (instantaneous TNSS, Wilcoxon rank-sum analysis, median, n=10) was −1.75. For the same compound, the “Mean change in instantaneous symptom iItchy nose” value [2] was −0.70 (0.92), the “Mean change in instantaneous symptom iRunny nose” value [2] was −0.30 (1.07) and the “Mean change in instantaneous symptom iSneezing” value [2] was −0.50 (0.53). The “Mean change in instantaneous symptom iStuffy nose” value [2] was −0.44 (0.56), the “decrease in instantaneous symptom severity (iTNSS)” value (mean, Student's t-test analysis, vs 1.14 point decrease with placebo) was 1.94 point and the “decrease in reflective symptom severity (rTNSS)” value (mean, Student's t-test analysis, vs 1.16 point decrease with placebo) was 2.11 point. For the same compound, the “decrease in instantaneous symptom severity (iTNSS)” value (median, Wilcoxon rank-sum analysis, vs 0.75 point decrease with placebo) was 1.75 point, the “decrease in reflective symptom severity during the PM assessment (rTNSS)” value (median, Wilcoxon rank-sum analysis, vs 1.25 point decrease with placebo) was 3.25 point and the “efficacy measures showing a larger improvement with danazol than placebo, reflective” value (rTNSS measures, all assessments but runny nose symptom) was 6/7. The “Mean change in rTNSS” value (reflective TNSS, all AM and PM scores, double-blind minus baseline, 0.1% (w/v) intranasal spray 0.3 ml once daily, 14 days, mean (SD), n=10) was −2.11 (2.66), the “Mean change in PM rTNSS” value (reflective TNSS, evening assessment, double-blind minus baseline, 0.1% (w/v) intranasal spray once daily, 14 days, mean (SD), n=10) was −2.39 (2.68) and the “Mean change in PM rTNSS” value (reflective TNSS, evening assessment, double-blind minus baseline, 0.1% (w/v) intranasal spray once daily, 14 days, mean (SD), n=10, listed as danazol) was −2.39. For the same compound, the “Change in PM rTNSS, Median” value (reflective TNSS, evening, Wilcoxon rank-sum analysis, median, n=10) was −3.25, the “Mean change in AM rTNSS” value (reflective TNSS, morning assessment, double-blind minus baseline, 0.1% (w/v) intranasal spray once daily, 14 days, mean (SD), n=10) was −1.62 (2.40) and the “Change in AM rTNSS, Median” value (reflective TNSS, morning, Wilcoxon rank-sum analysis, median, n=10) was −2.0. For the same compound, the “Change in rTNSS, Median” value (reflective TNSS, Wilcoxon rank-sum analysis, median, n=10) was −2.25, the “Mean change in reflective symptom rItchy nose” value [3] was −0.85 (1.02) and the “Mean change in reflective symptom rRunny nose” value [3] was −0.30 (0.66). For the same compound, the “Mean change in reflective symptom rSneezing” value [3] was −0.47 (0.71) and the “Mean change in reflective symptom rStuffy nose” value [3] was −0.48 (0.69).
